According to PubChem BioAssay (NCI):
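Five concentrations, 48 hours, 96-well plates. GI50 = concentration required for 50% inhibition of growth. TGI: concentration producing complete growth inhibition.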

Tests used:
Test in all cases: NCI anticancer screen, dose series, 48 h
786-0 renal = system: 786-0 renal
A549 NSCLC = system: A549 NSCLC
ACHN renal = system: ACHN renal
BT-549 breast = system: BT-549 breast
CAKI-1 renal = system: CAKI-1 renal
CCRF-CEM leukemia = system: CCRF-CEM leukemia
COLO 205 colon = system: COLO 205 colon
DU-145 prostate = system: DU-145 prostate
EKVX NSCLC = system: EKVX NSCLC
HCC-2998 colon = system: HCC-2998 colon
HCT-116 colon = system: HCT-116 colon
HCT-15 colon = system: HCT-15 colon
HL-60(TB) leukemia = system: HL-60(TB) leukemia
HOP-62 NSCLC = system: HOP-62 NSCLC
HOP-92 NSCLC = system: HOP-92 NSCLC
HS 578T breast = system: HS 578T breast
HT29 colon = system: HT29 colon
IGROV1 ovarian = system: IGROV1 ovarian
K-562 leukemia = system: K-562 leukemia
KM12 colon = system: KM12 colon
LOX IMVI melanoma = system: LOX IMVI melanoma
M14 melanoma = system: M14 melanoma
MALME-3M melanoma = system: MALME-3M melanoma
MCF7 breast = system: MCF7 breast
MDA-MB-231 breast = system: MDA-MB-231 breast
MDA-MB-435 = system: MDA-MB-435
MOLT-4 leukemia = system: MOLT-4 leukemia
NCI-H226 lung = system: NCI-H226 lung
NCI-H23 lung = system: NCI-H23 lung
NCI-H460 lung = system: NCI-H460 lung
NCI-H522 lung = system: NCI-H522 lung
NCI/ADR-RES ovarian = system: NCI/ADR-RES ovarian
OVCAR-4 ovarian = system: OVCAR-4 ovarian
OVCAR-5 ovarian = system: OVCAR-5 ovarian
OVCAR-8 ovarian = system: OVCAR-8 ovarian
PC-3 prostate = system: PC-3 prostate
RPMI-8226 leukemia = system: RPMI-8226 leukemia
RXF 393 renal = system: RXF 393 renal
SF-268 CNS = system: SF-268 CNS
SF-295 CNS = system: SF-295 CNS
SF-539 CNS = system: SF-539 CNS
SK-MEL-2 melanoma = system: SK-MEL-2 melanoma
SK-MEL-28 melanoma = system: SK-MEL-28 melanoma
SK-MEL-5 melanoma = system: SK-MEL-5 melanoma
SK-OV-3 ovarian = system: SK-OV-3 ovarian
SN12C renal = system: SN12C renal
SNB-19 CNS = system: SNB-19 CNS
SNB-75 CNS = system: SNB-75 CNS
SR leukemia = system: SR leukemia
SW-620 colon = system: SW-620 colon
T-47D breast = system: T-47D breast
TK-10 renal = system: TK-10 renal
U251 CNS = system: U251 CNS
UACC-257 melanoma = system: UACC-257 melanoma
UACC-62 melanoma = system: UACC-62 melanoma
UO-31 renal = system: UO-31 renal

Work on `CS(=O)(=O)Nc1cc(-c2ccc3ncc(C#N)c(NCc4cccc(F)c4)c3c2)cnc1Cl` yielded a GI50 (786-0 renal) of 310 nM, a TGI (786-0 renal) of 5520 nM and a GI50 (A549 NSCLC) of 695 nM. It also gave a TGI (A549 NSCLC) of 6800 nM, a GI50 (ACHN renal) of 570 nM and a TGI (ACHN renal) of over 45100 nM. The GI50 (BT-549 breast) was 73.6 nM, the TGI (BT-549 breast) was 678 nM and the GI50 (CAKI-1 renal) was 163 nM. It also gave a TGI (CAKI-1 renal) of 2040 nM, a GI50 (CCRF-CEM leukemia) of 164 nM and a TGI (CCRF-CEM leukemia) of 20400 nM. The GI50 (COLO 205 colon) was 357 nM, the TGI (COLO 205 colon) was 1650 nM and the GI50 (DU-145 prostate) was 336 nM. The TGI (DU-145 prostate) was 11800 nM, the GI50 (EKVX NSCLC) was 381 nM and the TGI (EKVX NSCLC) was 5130 nM. For the same compound, the GI50 (HCC-2998 colon) was 367 nM, the TGI (HCC-2998 colon) was 6560 nM and the GI50 (HCT-116 colon) was 277 nM. The TGI (HCT-116 colon) was 1480 nM, the GI50 (HCT-15 colon) was 289 nM and the TGI (HCT-15 colon) was 11800 nM. It also gave a GI50 (HL-60(TB) leukemia) of 330 nM, a TGI (HL-60(TB) leukemia) of 4450 nM and a GI50 (HOP-62 NSCLC) of 220 nM. For the same compound, the TGI (HOP-62 NSCLC) was 4150 nM, the GI50 (HOP-92 NSCLC) was 36.3 nM and the TGI (HOP-92 NSCLC) was 459 nM. It also gave a GI50 (HS 578T breast) of 51.3 nM, a TGI (HS 578T breast) of 451 nM and a GI50 (HT29 colon) of 502 nM. For the same compound, the TGI (HT29 colon) was 4640 nM, the GI50 (IGROV1 ovarian) was 122 nM and the TGI (IGROV1 ovarian) was 972 nM. The GI50 (K-562 leukemia) was 274 nM, the TGI (K-562 leukemia) was over 59300 nM and the GI50 (KM12 colon) was 347 nM. For the same compound, the TGI (KM12 colon) was 2610 nM, the GI50 (LOX IMVI melanoma) was 200 nM and the TGI (LOX IMVI melanoma) was 1110 nM. For the same compound, the GI50 (M14 melanoma) was 254 nM, the TGI (M14 melanoma) was 5860 nM and the GI50 (MALME-3M melanoma) was 79.3 nM. The TGI (MALME-3M melanoma) was 559 nM, the GI50 (MCF7 breast) was 118 nM and the TGI (MCF7 breast) was 9850 nM. The GI50 (MDA-MB-231 breast) was 350 nM, the TGI (MDA-MB-231 breast) was 4960 nM and the GI50 (MDA-MB-435) was 258 nM. It also gave a TGI (MDA-MB-435) of 9500 nM, a GI50 (MOLT-4 leukemia) of 218 nM and a TGI (MOLT-4 leukemia) of 1980 nM. It also gave a GI50 (NCI-H226 lung) of 363 nM, a TGI (NCI-H226 lung) of 22800 nM and a GI50 (NCI-H23 lung) of 348 nM. It also gave a TGI (NCI-H23 lung) of 13600 nM, a GI50 (NCI-H460 lung) of 509 nM and a TGI (NCI-H460 lung) of 11400 nM. For the same compound, the GI50 (NCI-H522 lung) was 369 nM, the TGI (NCI-H522 lung) was 7860 nM and the GI50 (NCI/ADR-RES ovarian) was 1990 nM. It also gave a TGI (NCI/ADR-RES ovarian) of 40300 nM, a GI50 (OVCAR-4 ovarian) of 309 nM and a TGI (OVCAR-4 ovarian) of over 27700 nM. The GI50 (OVCAR-5 ovarian) was 473 nM, the TGI (OVCAR-5 ovarian) was 12000 nM and the GI50 (OVCAR-8 ovarian) was 366 nM. It also gave a TGI (OVCAR-8 ovarian) of 16400 nM, a GI50 (PC-3 prostate) of 284 nM and a TGI (PC-3 prostate) of 5710 nM. It also gave a GI50 (RPMI-8226 leukemia) of 287 nM, a TGI (RPMI-8226 leukemia) of 2160 nM and a GI50 (RXF 393 renal) of 110 nM. It also gave a TGI (RXF 393 renal) of 784 nM, a GI50 (SF-268 CNS) of 196 nM and a TGI (SF-268 CNS) of 3610 nM. For the same compound, the GI50 (SF-295 CNS) was 237 nM, the TGI (SF-295 CNS) was 2430 nM and the GI50 (SF-539 CNS) was 195 nM. The TGI (SF-539 CNS) was 1850 nM, the GI50 (SK-MEL-2 melanoma) was 122 nM and the TGI (SK-MEL-2 melanoma) was 374 nM. The GI50 (SK-MEL-28 melanoma) was 191 nM, the TGI (SK-MEL-28 melanoma) was 4690 nM and the GI50 (SK-MEL-5 melanoma) was 179 nM. For the same compound, the TGI (SK-MEL-5 melanoma) was 403 nM, the GI50 (SK-OV-3 ovarian) was 263 nM and the TGI (SK-OV-3 ovarian) was 1760 nM. For the same compound, the GI50 (SN12C renal) was 278 nM, the TGI (SN12C renal) was 32400 nM and the GI50 (SNB-19 CNS) was 292 nM. For the same compound, the TGI (SNB-19 CNS) was 11000 nM, the GI50 (SNB-75 CNS) was 34.3 nM and the TGI (SNB-75 CNS) was 448 nM. The GI50 (SR leukemia) was 112 nM, the TGI (SR leukemia) was 2240 nM and the GI50 (SW-620 colon) was 344 nM. It also gave a TGI (SW-620 colon) of 10300 nM, a GI50 (T-47D breast) of 63.5 nM and a TGI (T-47D breast) of 1460 nM. It also gave a GI50 (TK-10 renal) of 141 nM, a TGI (TK-10 renal) of 1220 nM and a GI50 (U251 CNS) of 197 nM. For the same compound, the TGI (U251 CNS) was 2680 nM, the GI50 (UACC-257 melanoma) was 335 nM and the TGI (UACC-257 melanoma) was 7140 nM. It also gave a GI50 (UACC-62 melanoma) of 121 nM, a TGI (UACC-62 melanoma) of 1190 nM and a GI50 (UO-31 renal) of 162 nM. The TGI (UO-31 renal) was over 21500 nM.
